# Assay: Oral fluid testing: concentration of the primary metabolite (parent drug) in oral fluid of patients
# Type: in vivo, human
# Experimental: In some embodiments, the amount of a drug in a subject is determined by analyzing a fluid of the subject. The term “fluid” as used herein refers to oral fluid and any liquid or pseudo-liquid obtained from the oral cavity of the subject. Non-limiting examples include saliva, mucus, and the like. In an embodiment, the fluid is oral fluid.
# Determining the amount of a drug in oral fluid of the subject may be accomplished by use of any method known to those skilled in the art. Non-limiting examples for determining the amount of a drug in fluid of a subject include fluorescence polarization immunoassay (“FPIA,” Abbott Diagnostics), mass spectrometry (MS), gas chromatography-mass spectrometry (GC-MS-MS), liquid chromatography-mass spectrometry (LC-MS-MS), and the like. In one embodiment, LC-MS-MS methods known to those skilled in the art are used to determine a raw level, amount or concentration of a drug in oral fluid of the subject. In one embodiment, a raw level or concentration of a drug in oral fluid of a subject is measured and reported as a ratio, percent, or in relationship to the amount of fluid. The amount of fluid may be expressed as a unit volume, for example, in L, mL, μL, pL, ounce, etc. In one embodiment, the raw amount of a drug in oral fluid of a subject may be expressed as an absolute level or value, for example, in g, mg, pg, ng, pg, etc.
# The results (drug concentration of the primary metabolite), demographic information (gender, weight, height, and age), and the prescribed dosage of hydrocodone for fifty randomly selected patients—not included in the patient population used to design the models—were used to assess the validity and robustness of the models.
# The results (drug concentration of the primary metabolite), demographic information (gender, weight, height, and age), and the prescribed dosage of oxycodone for fifty randomly selected patients—not included in the patient population used to design the models—were used to assess the validity and robustness of the models.
Compound,"concentration of the primary metabolite (parent drug) in oral fluid (Example 1: subject, 180 lbs, 65 inches, 30 mg daily dose of hydrocodone) [ng/mL]","concentration of the primary metabolite (parent drug) in the oral fluid (Example 2: subject, 225 lbs, 69 inches, 40 mg daily dose of hydrocodone) [ng/m I]","concentration of the primary metabolite (parent drug) in the oral fluid (Example 3: subject, 254 lbs, 71 inches, 90 mg daily dose of oxycodone) [ng/mL]","concentration of the primary metabolite (parent drug) in the oral fluid (Example 4: subject, 113 lbs, 64 inches, 60 mg daily dose) [ng/mL]"
"COc1ccc2c3c1O[C@H]1C(=O)CC[C@H]4[C@@H](C2)N(C)CC[C@]314 [Hydrocodone, hydrocodone]",34,101,,
"COc1ccc2c3c1O[C@H]1C(=O)CC[C@@]4(O)[C@@H](C2)N(C)CC[C@]314 [Oxycodone, oxycodone]",,,429,50

# Reference: US20180045744A1, “N[…] DRUG CONCENTRATIONS IN ORAL FLUIDS AND TESTING FOR POTENTIAL NON-[…] DRUG TREATMENT REGIMEN” (Ameritox, LLC, priority 2015, published 2018)
